# How the values were obtained:
# GST-Bcl2 = GST-Bcl2 (Homo sapiens, UniProt P10415); conditions: specific binding; Rodi et al.; cited from earlier work
# lambda phage = test: Immunity experiments: plaque formation on lambda phage infection of LE392 cells containing engineered repressors, with and without taxol; format: cell-based; conditions: 30° C., scored at 24 and 48 hours
# From the text: There are multiple ways to evaluate lambda repressor function. One such method exploits the central role of the repressor in controlling the decision of lambda phage to enter the lytic or the lysogenic phase. In the presence of a high concentration of functional cI in the bacterial cell, entering lambda phage are pushed into the lysogenic phase. In the absence of cI, bacteria are susceptible to infection by lambda phage: the lysed cells manifest as plaques on a bacterial lawn. The level of functional cI in a cell determines whether incoming phage will continue to enter the lytic cycle or choose the lysogenic cycle, when the phage is integrated into the host genome. Cells with functional cI can thus display immunity to phage superinfection. In addition it is also possible to conduct in vitro experiments, such as electrophoretic mobility shift assays where binding of purified protein to labeled oligonucleotide duplexes can be monitored.
# The repressors were placed under the control of a constitutive promoter (tet promoter) in a pUNI (Invitrogen) donor vector. […]
# Five sets of experiments have been done with each of the cI-bZIP, TBD-cI-bZIP, and TBD-ΔK-cI-bZIP constructs. […] Plaque phenotype was scored at 24 and 48 hours of incubation at 30° C. The number of plaques was counted for three experiments using 3-5 replicates for each set.
# Chain of GST-Bcl2 (P10415 whole entry): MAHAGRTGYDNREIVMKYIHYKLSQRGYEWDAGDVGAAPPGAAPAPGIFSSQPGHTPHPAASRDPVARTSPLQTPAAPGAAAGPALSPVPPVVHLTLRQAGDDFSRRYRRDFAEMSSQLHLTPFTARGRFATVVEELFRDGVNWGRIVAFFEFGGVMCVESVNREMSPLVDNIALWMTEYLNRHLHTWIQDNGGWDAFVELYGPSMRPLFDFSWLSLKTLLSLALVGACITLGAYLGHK
Molecule,Kd of taxol binding to GST-Bcl2 (GST-Bcl2),Change of plaque phenotype/size on addition of taxol (lambda phage; 100 uM taxol in culture and top agar),"Plaque phenotype (size) on infection with lambda phage (lambda phage; LE392 cells containing the repressor, absence of taxol)"
CC(=O)O[C@H]1C(=O)[C@@]2(C)[C@H]([C@H](OC(=O)c3ccccc3)[C@]3(O)C[C@H](OC(=O)[C@H](O)[C@@H](NC(=O)c4ccccc4)c4ccccc4)C(C)=C1C3(C)C)[C@]1(OC(C)=O)CO[C@@H]1C[C@@H]2O [taxol],nanomolar range,,
cI-bZIP: chimeric repressor: DNA binding domain and linker of lambda repressor (cI aa 1-132) fused to GCN4 leucine zipper; SEQ ID NO: 12,,not changed,miniscule plaques barely visible to the eye

# From patent US20070196816A1, “Engineered stimulus-responsive switches” (priority 2000, published 2007)
